From patent US11318190B2, “Methods and compositions for treating liver disease” (UNITED STATES GOVERNMENT AS REPRESENTED BY THE DEPARTMENT …, priority 2017, dated 2022)

Tests used:
large IMCLs = experiment: Large IMCLs treated with secretin with/without LY2109761, or with TGF-β1 (Example 2); type: cell-based, mouse
From the text: Cholangiocytes were obtained by immunoaffinity separation as described herein above, using a monoclonal antibody (a gift from Dr. R. Faris, Brown University, Providence, R.I.) that is expressed by all intrahepatic cholangiocytes. HSCs from the selected groups of mice were isolated by LCM as described previously in Wu, N et al., The secretin/secretin receptor axis modulates liver fibrosis through changes in transforming growth factor-beta1 biliary secretion in mice, Hepatology (Baltimore, Md.) 64(3):865-879 (2016). Briefly, frozen liver sections (n=3, 10 μm thick) were incubated overnight with an anti-desmin (a marker of stellate cells) antibody. Then, desmin-positive cells were dissected from the slides using a LCM system Leica LMD7000 (Buffalo Grove, Ill.) and were collected before RNA extraction with the Arcturus PicoPure RNA isolation kit (Thermo Fisher Scientific CO, Mountain View, Calif.). The in vitro studies were performed in: (I) immortalized murine cholangiocyte lines derived from large cholangiocytes lining large ducts (IMCLs); and (ii) human hepatic stellate cell lines (HHSteCs; ScienCell Research Laboratories, Carlsbad, Calif.).
WT mice were treated for 1 wk with saline or secretin (Sct; 2.5 nmoles/kg body weight per day) before collecting cholangiocytes, HSCs and cholangiocyte supernatants. The levels of TGF-β1 were measured in short-term (6-hour) cultures of cholangiocytes by ELISA kits. Subsequently, we measured: (i) liver fibrosis by immunofluorescence for Col1a1 in liver sections and real-time PCR for TGF-β1, TFG-β1R, Col1a1, α-SMA and Fn1 in cholangiocytes and HSCs; and (ii) cellular senescence by immunofluorescence in liver sections for p16 and real-time PCR for p16 and p21 in cholangiocytes and HSC.
(§1) Biliary supernatants were obtained from normal and BDL WT mice and Sct^−/−, SR^−/− and Sct^−/−/SR^−/− BDL mice as well as normal WT mice treated with saline or secretin. HHSteCs were incubated with the aforementioned biliary supernatants (containing different levels of TGF-β1) for 24 hr (in the absence or presence of LY2109761) before measuring the expression of senescence and fibrosis genes by real-time PCR. Furthermore, HHSteCs were incubated with the supernatant of large IMCLs treated for 0.2% bovine serum albumin (basal) or secretin (10 nM) with/without LY2109761 for 6 hr before measuring the mRNA expression of fibrosis and senescence genes. To provide direct evidence that TGF-β1 directly modulates fibrosis and senescence of IMCLs and HHSteCs, these cells were stimulated with TGF-β1 (10 nM) for 24 hr before measuring the expression of PCNA as well as fibrosis and senescence genes by real-time PCR.

HHSteCs [1] = experiment: HHSteCs incubated with biliary/IMCL supernatants with/without LY2109761, or with TGF-β1 (Example 2); type: cell-based, human
Protocol: as §1

HHSteCs [2] = experiment: HHSteCs treated with cholangiocyte supernatants with/without LY2109761, TGF-β1 or r-VEGFA (Example 4); type: cell-based, human; conditions: 12 hr
Protocol: (§2) Cholangiocytes were obtained by immunoaffinity separation, Cholangiocytes were obtained by immunoaffinity separation as described herein above, using a monoclonal antibody (a gift from Dr. R. Faris, Brown University, Providence, R.I.) that is expressed by all intrahepatic cholangiocytes. Cell viability (greater than 97%) was assessed by trypan blue exclusion. HSCs were isolated by LCM as described herein above. Frozen liver sections (n=3, 10 μm thick) were incubated overnight with an antibody against desmin (marker of stellate cells). Following staining, desmin-positive HSCs were dissected from the slides by a LCM system Leica LMD7000 (Buffalo Grove, Ill.) and collected into a PCR tube before being analyzed. The RNA from HSCs was extracted with the Arcturus PicoPure RNA isolation kit (Thermo Fisher Scientific CO, Mountain View, Calif.). The in vitro studies were performed in our immortalized murine biliary cell lines (IMCLs) and human hepatic stellate cell lines (HHSteCs, Sciencell, Carlsbad, USA).
In biliary supernatants, the levels of TGF-β1 were measured by ELISA kits. HHSteCs were incubated with cholangiocyte supernatants from the selected groups of animals for 12 hr (in the absence or presence of LY2109761, 10 μM, a TGF-β1 receptor antagonist, Cayman Chemical, Ann Arbor, Mich.) before measuring the expression of VEGF-A and senescent and fibrosis genes by qPCR. To determine that Sct increases TGF-β1 levels by a microRNA 125b-dependent mechanism, IMCLs were treated with Sct (10 nM in the absence/presence of a microRNA 125b mimic precursor, 5 μM) for 12 hr before measuring TGF-β1 mRNA expression (by qPCR) and secretion by ELISA kits. To provide conclusive evidence that TGF-β1 directly modulates the function IMCLs and HHSteCs, these cells were stimulated with TGF-β1 (10 nM) for 12 hr before measuring the expression of VEGF-A and senescent and fibrosis genes by qPCR. […] We also evaluated by immunofluorescence the expression of VEGFR-2 in cell smears of IMCLs and HHSteCs. […]

TGF-β receptor type II = TGF-β receptor type II (Homo sapiens, UniProt P37173); conditions: cited from earlier work
IMCLs = IMCLs treated with Sct with/without microRNA 125b mimic precursor, TGF-β1 or r-VEGFA (Example 4); type: cell-based, mouse; conditions: TGF-β1 10 nM or r-VEGFA 100 nM, 12 hr
Protocol: as §2
In biliary supernatants, the levels of TGF-β1 were measured by ELISA kits. […] We also evaluated by immunofluorescence the expression of VEGFR-2 in cell smears of IMCLs and HHSteCs. […]

TGF-β receptor type II, sequence (P37173 23-567): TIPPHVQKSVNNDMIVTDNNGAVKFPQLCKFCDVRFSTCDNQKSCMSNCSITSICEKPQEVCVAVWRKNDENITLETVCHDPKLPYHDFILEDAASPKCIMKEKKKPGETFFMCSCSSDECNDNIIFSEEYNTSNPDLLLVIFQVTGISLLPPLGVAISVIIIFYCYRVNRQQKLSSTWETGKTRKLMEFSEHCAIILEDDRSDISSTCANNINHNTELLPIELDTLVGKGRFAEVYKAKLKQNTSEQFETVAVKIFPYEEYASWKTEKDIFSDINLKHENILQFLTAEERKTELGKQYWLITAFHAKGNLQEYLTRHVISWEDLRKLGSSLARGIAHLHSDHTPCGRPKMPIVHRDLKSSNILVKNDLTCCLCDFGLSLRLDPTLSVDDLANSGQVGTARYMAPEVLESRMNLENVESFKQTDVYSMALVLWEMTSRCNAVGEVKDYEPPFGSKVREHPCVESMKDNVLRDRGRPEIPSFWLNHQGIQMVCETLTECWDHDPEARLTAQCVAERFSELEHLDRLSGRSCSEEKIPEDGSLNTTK

| Compound | effect of preincubation on secretin-induced TGF-β1 secretion and fibrosis/senescence genes of large IMCLs (large IMCLs; LY2109761 10 nM) | effect of preincubation on fibrosis/senescence gene changes in HHSteCs (HHSteCs [1]; before supernatant from secretin-treated WT mice) | effect of preincubation on fibrosis/senescence gene changes of HHSteCs (HHSteCs [1]; supernatant of secretin-treated large IMCLs) | effect of preincubation on VEGF-A, fibrosis and senescence gene changes in HHSteCs (HHSteCs [2]; LY2109761 10 μM, cholangiocyte supernatants from Mdr2−/− mice) | Ki (TGF-β receptor type II) | PCNA mRNA expression of large IMCLs (large IMCLs; TGF-β1 10 nM, 24 hr) | expression of fibrosis and senescence genes of large IMCLs (large IMCLs; TGF-β1 10 nM, 24 hr) | fibrosis gene expression in HHSteCs (HHSteCs [1]; direct TGF-β1 10 nM, 24 hr) | senescence gene expression in HHSteCs (HHSteCs [1]; direct TGF-β1 10 nM, 24 hr) | expression of VEGF-A, fibrosis and senescence genes in IMCLs (IMCLs) | expression of VEGF-A, fibrosis genes in HHSteCs (HHSteCs [2]; TGF-β1 10 nM or r-VEGFA 100 nM) | senescence genes in HHSteCs (HHSteCs [2]; TGF-β1 10 nM or r-VEGFA 100 nM) |
| --- | --- | --- | --- | --- | --- | --- | --- | --- | --- | --- | --- | --- |
| c1ccc(-c2nn3c(c2-c2ccnc4cc(OCCN5CCOCC5)ccc24)CCC3)nc1 [LY2109761] | prevented | reversed | reversed | reversed | 300 nM |  |  |  |  |  |  |  |
| TGF-β1: transforming growth factor-β1 used to stimulate IMCLs and HHSteCs (10 nM) |  |  |  |  |  | decreased | increased | stimulates | reduces | increased | increased | decreased |
